Where two headings read alike, the source gives them in different places.
System: iCell cardiomyocytes (human iPSC-derived cardiomyocytes)
Assay: Intracellular Ca2+ flux / beating parameters in iCell cardiomyocytes (FLIPR tetra), 90 min or 24 h
Format: cell-based
Conditions: Homo sapiens, Cardiomyocyte, 0.00 µM = 100.00; for activity at 0.1 µM: 0.10 µM
Method: Details on cardiomyocyte cell culture are described in detail elsewhere ([Grimm et al. 2015b]; [Sirenko et al. 2013a]). Briefly, tissue-culture treated 384 well plates were gelatinized with 25μL per well of 0.1% (w/v) gelatin in water for 2 h at 37°C and 5% CO2 . Individual vials of cells were thawed for 4 min in a water bath maintained at 37°C. Thawed cells were resuspended in 10ml plating medium containing 1:500 (vol/vol) penicillin/streptomycin solution at room temperature (RT). Live cell counts for each cell suspension were determined by trypan blue staining and cells were further diluted to provide final cell densities of 2×10^5 viable cells/ml. Thus, 5,000 cells suspended in 25μL media were transferred per well after the gelatin solution had been discarded. Cell culture plates were rested for 30 min at RT before they were incubated for 48 h at 37°C and 5% CO2 . Then, a media exchange with 30μL of fresh maintenance medium containing 1:500 (vol/vol) penicillin/streptomycin solution was performed, and cell media were subsequently changed every 48 h for 12 d. On the experiment day, the medium was completely exchanged with either 25μL (for Ca^2+ flux assay) or 40μL (for imaging) of fresh medium.
Responses of iCell®-cardiomyocytes to drugs and chemicals were evaluated using intracellular Ca^2+ flux measurements ([Grimm et al. 2015b]; [Sirenko et al. 2013b]). For experiments, 20 mM stock solutions of PCBs and PCB metabolites were prepared in DMSO ( 200× ). Chemical working solutions ( 5× ) were prepared using cardiomyocyte maintenance medium and contained 2.5% (vol/vol) DMSO. These chemical master plates were prepared to include all chemicals in concentration–response (0.05, 0.5, 5, 50, and 500μM ). Negative controls included media-only and vehicle control (i.e., 0.5% vol/vol DMSO in cell culture media) wells. Positive assay controls were consistent with previously published reports ([Grimm et al. 2018]) and included TAB ( 50μM ) as a cytotoxic control, and isoproterenol ( 0.1–10μM ), propranolol ( 0.1–5 μM ), cisapride ( 0.01–1μM ), and doxorubicin ( 0.1–5μM ) as chemicals associated with specific effects on beating and ion flux. Each test chemical was screened in triplicate for each concentration.
Experiments started with the addition of 25μL of prewarmed 2× concentrated calcium dye reagent to sample wells containing 25μL maintenance media. Microplates were then acclimated for 2 h at 37°C. Following equilibration, cardiomyocyte sample wells were treated simultaneously by the addition of 12.5μL of prewarmed 5× chemical solution to iCell®-cardiomyocytes using the automated liquid handler in the FLIPR tetra (Molecular Devices). Treated cell cultures were incubated for either 90 min or 24 h. After the conclusion of the treatment period, the Ca^2+ flux was measured for 100 s at a frequency of 8 Hz using the integrated fluorescence plate reader in the FLIPR tetra (Molecular Devices) using an emission wavelength range of λemission=515–575 nm ( λexcitation=470–495 nm ). Additional instrument settings included exposure time per read of 0.05s, a gain of 2000, an excitation intensity of 30%, and an internal temperature of 37°C.
Ca^2+ flux data were processed in R studio (version 1.0.136, with R version 3.3.2; R Development Core Team) as described elsewhere ([Blanchette et al. 2019]; [Burnett et al. 2019]). Calculated quantitative metrics included the means and coefficients of variation (CV) of the peak height, which can be indicative of cytotoxicity, inhibition, or stimulation of beating. Means of peak frequency, an indicator of positive or negative […], and CV of peak spacing, an indicator of irregular beating, were also derived from Ca^2+ flux traces. Finally, the mean ratio of the decay over rise time was calculated. Increases in the decay/rise time ratio are reflective of delayed repolarization and are a measure for QT prolongation. […]

[1] = 1.5 h, read-out: cm.amp.avg.90min
[2] = 1.5 h, read-out: cm.amp.cv.90min
[3] = 1.5 h, read-out: cm.decay.rise.90min
[4] = 1.5 h, read-out: cm.spacing.cv.90min
[5] = 24 h, read-out: cm.amp.avg.24hrs
[6] = 24 h, read-out: cm.amp.cv.24hrs
[7] = 24 h, read-out: cm.decay.rise.24hrs
[8] = 24 h, read-out: cm.spacing.cv.24hrs

`Oc1ccc(O)c(-c2ccc(Cl)cc2)c1` [2',5'-DiOH PCB3] gave an activity at 0.01 µM [1] of 102%, an activity at 0.01 µM [2] of 90% and an activity at 0.01 µM (1.5 h, read-out: cm.bpm.90min) of 99.1%. It also gave an activity at 0.01 µM [3] of 97.4%, an activity at 0.01 µM [4] of 113% and an activity at 0.1 µM [1] of 105%. The activity at 0.1 µM [2] was 110%, the activity at 0.1 µM (1.5 h, read-out: cm.bpm.90min) was 100% and the activity at 0.1 µM [3] was 95.6%. The activity at 0.1 µM [4] was 94%, the activity at 1 µM [1] was 106% and the activity at 1 µM [2] was 93.3%. The activity at 1 µM (1.5 h, read-out: cm.bpm.90min) was 92.8%, the activity at 1 µM [3] was 98.3% and the activity at 1 µM [4] was 107%. It also gave an activity at 10 µM [1] of 110%, an activity at 10 µM [2] of 112% and an activity at 10 µM (1.5 h, read-out: cm.bpm.90min) of 104%. For the same molecule, the activity at 10 µM [3] was 105%, the activity at 10 µM [4] was 132% and the activity at 100 µM [1] was 9.07%. It also gave an activity at 100 µM [2] of 380%, an activity at 100 µM (1.5 h, read-out: cm.bpm.90min) of 7.52% and an activity at 100 µM [3] of 21.5%. For the same molecule, the activity at 100 µM [4] was 381%, the activity at 0.01 µM [5] was 161% and the activity at 0.01 µM [6] was 75.5%. For the same molecule, the activity at 0.01 µM (24 h, read-out: cm.bpm.24hrs) was 105%, the activity at 0.01 µM [7] was 98.5% and the activity at 0.01 µM [8] was 110%. It also gave an activity at 0.1 µM [5] of 147%, an activity at 0.1 µM [6] of 75% and an activity at 0.1 µM (24 h, read-out: cm.bpm.24hrs) of 100%. The activity at 0.1 µM [7] was 101%, the activity at 0.1 µM [8] was 93.3% and the activity at 1 µM [5] was 141%. It also gave an activity at 1 µM [6] of 69.9%, an activity at 1 µM (24 h, read-out: cm.bpm.24hrs) of 92.6% and an activity at 1 µM [7] of 109%. The activity at 1 µM [8] was 89%, the activity at 10 µM [5] was 0% and the activity at 10 µM [6] was 0%. For the same molecule, the activity at 10 µM (24 h, read-out: cm.bpm.24hrs) was 0%, the activity at 10 µM [7] was 0% and the activity at 10 µM [8] was 0%. It also gave an activity at 100 µM [5] of 0%, an activity at 100 µM [6] of 0% and an activity at 100 µM (24 h, read-out: cm.bpm.24hrs) of 0%. It also gave an activity at 100 µM [7] of 0% and an activity at 100 µM [8] of 0%.
For `Oc1ccccc1-c1ccc(Cl)cc1` [2'-OH PCB3], the activity at 0.01 µM [1] was 95.7%, the activity at 0.01 µM [2] was 112% and the activity at 0.01 µM (1.5 h, read-out: cm.bpm.90min) was 102%. For the same molecule, the activity at 0.01 µM [3] was 98.2%, the activity at 0.01 µM [4] was 143% and the activity at 0.1 µM [1] was 105%. For the same molecule, the activity at 0.1 µM [2] was 96.5%, the activity at 0.1 µM (1.5 h, read-out: cm.bpm.90min) was 102% and the activity at 0.1 µM [3] was 98.7%. The activity at 0.1 µM [4] was 110%, the activity at 1 µM [1] was 102% and the activity at 1 µM [2] was 116%. For the same molecule, the activity at 1 µM (1.5 h, read-out: cm.bpm.90min) was 104%, the activity at 1 µM [3] was 97.6% and the activity at 1 µM [4] was 106%. For the same molecule, the activity at 10 µM [1] was 0%, the activity at 10 µM [2] was 0% and the activity at 10 µM (1.5 h, read-out: cm.bpm.90min) was 0%. It also gave an activity at 10 µM [3] of 0%, an activity at 10 µM [4] of 0% and an activity at 100 µM [1] of 0%. The activity at 100 µM [2] was 0%, the activity at 100 µM (1.5 h, read-out: cm.bpm.90min) was 0% and the activity at 100 µM [3] was 0%. For the same molecule, the activity at 100 µM [4] was 0%, the activity at 0.01 µM [5] was 112% and the activity at 0.01 µM [6] was 138%. It also gave an activity at 0.01 µM (24 h, read-out: cm.bpm.24hrs) of 118%, an activity at 0.01 µM [7] of 82.1% and an activity at 0.01 µM [8] of 120%. For the same molecule, the activity at 0.1 µM [5] was 115%, the activity at 0.1 µM [6] was 126% and the activity at 0.1 µM (24 h, read-out: cm.bpm.24hrs) was 116%. For the same molecule, the activity at 0.1 µM [7] was 92.5%, the activity at 0.1 µM [8] was 111% and the activity at 1 µM [5] was 124%. The activity at 1 µM [6] was 94.2%, the activity at 1 µM (24 h, read-out: cm.bpm.24hrs) was 95.5% and the activity at 1 µM [7] was 112%. The activity at 1 µM [8] was 106%, the activity at 10 µM [5] was 104% and the activity at 10 µM [6] was 140%. It also gave an activity at 10 µM (24 h, read-out: cm.bpm.24hrs) of 121%, an activity at 10 µM [7] of 82.7% and an activity at 10 µM [8] of 111%. For the same molecule, the activity at 100 µM [5] was 0%, the activity at 100 µM [6] was 0% and the activity at 100 µM (24 h, read-out: cm.bpm.24hrs) was 0%. The activity at 100 µM [7] was 0% and the activity at 100 µM [8] was 0%.
